# Test results published in US3984410A, “Isourea acetylphosphate insecticides” (priority 1975, dated 1976).
# Read-outs that look alike come from different tables or passages of the source.
# How the values were obtained:
# Type in all cases: in vivo
# [1] = test system: Cabbage Looper [Trichoplusia ni (Hubner)]; experiment: Cabbage Looper on dipped squash cotyledons; details: second-instar larvae, cotyledon dip; 48 hours plus 5 days
# Procedure: (§1) Test compounds are diluted in a 50--50 acetone-water solution. Cotyledons of hyzini squash (Calabacita abobrinha), approximately 1 × 1.5 inches, are immersed in the test solutions for 2-3 seconds and placed on a wire screen to dry. The dried leaves are placed in petri dishes containing a moistened piece of filter paper and infested with five second-instar cabbage looper larvae. Mortality of the larvae is recorded 48 hours later, and a piece of synthetic media is added to dishes containing survivors. These are then held for 5 additional days to observe for any delayed effects of the test chemicals. Test concentrations range from 0.1% down to that at which approximately 50% mortality occurs.
# [2] = test system: German Cockroach [Blattella germanica (Linne)]; experiment: German Cockroach spray
# Procedure: Test compounds are diluted in a 50--50 acetone-water solution. Two cc of the solutions are sprayed through a DeVilbiss type EGA hand spray gun into circular cardboard cages containing 10 l-month-old German cockroach nymphs. The test cages are covered on the bottom with cellophane and the top with tulle netting. Percent mortality is recorded 7 days later. Test concentrations range from 0.1% down to that at which approximately 50% mortality occurs.
# [3] = test system: housefly (Musca domestica L.); experiment: Housefly mortality, residue on aluminum dishes; details: 25 3-day old female houseflies; mortality after 48 hours
# Procedure: Test compounds are diluted in acetone and aliquots are pipetted onto the bottom of 55 × 15 mm aluminum dishes. To insure even spreading of the chemical on the bottom of the dishes, 1 ml of acetone containing 0.02% peanut oil is also added to each dish. After all solvents have evaporated the dishes are placed in circular cardboard cages containing 25 3-day old female houseflies. The cages are covered on the bottom with cellophane and the top with tulle netting, and each contains a sugar-water saturated cotton plug for maintenance of the flies. Mortality is recorded after 48 hours. Test levels range from 100 μg/25 F. houseflies down to that at which approximately 50% mortality occurs.
# [4] = test system: Black Bean Aphid [Aphis fabae (Scop.)]; experiment: Direct Spray Assay on Black Bean Aphid; details: direct spray on nasturtium plants; mortality after 7 days
# Procedure: Nasturtium plants (Tropaeolum sp.), approximately 5 cm tall, are transplanted into sandy loam soil in 3-inch clay pots and infested with 25-50 black bean aphids of mixed ages. Twenty-four hours later they are sprayed, to the point of runoff, with 50--50 acetone-water solutions of the test chemicals. Treated plants are held in the greenhouse and mortality is recorded after 7 days. Test concentrations range from 0.05% down to that at which 50% mortality occurs.
# [5] = test system: Green Peach Aphid [Myzus persicae (Sulzer)]; experiment: Green Peach Aphid spray on radish plants; details: sprayed to runoff on radish plants; mortality after 48 hours
# Procedure: Radish plants (Rhaphanus sativus), approximately 2 cm tall, are transplanted into sandy loam soil in 3-inch clay pots and infested with 25-50 green peach aphids of mixed ages. Twenty-four hours later they are sprayed, to the point of runoff, with 50--50 acetone-water solutions of the test chemicals. Treated plants are held in the greenhouse and mortality is recorded after 48 hours. Test concentrations range from 0.05% down to that at which 50% mortality occurs.
# [6] = test system: Tobacco Budworm [Heliothis virescens (F.)]; experiment: Tobacco Budworm on dipped Romaine lettuce leaves; details: larvae, Romaine lettuce leaf dip; 48 hours plus 5 days
# Procedure: as §1
# The procedure is the same as that used for the cabbage looper, except that sections of Romaine lettuce (Latica sativa) leaves were used instead of cotyledons of hyzini squash.
# [7] = test system: Lygus Bug [Lygus hesperus (Knight)]; experiment: Lygus Bug spray; details: spray on adult bugs; mortality after 48 hours
# Procedure: Test compounds are in a 50--50 acetone-water solution. Two cc of the solutions are sprayed through a Devilbiss type EGA hand spray gun into circular cardboard cages containing one string bean pod and ten adult lygus bugs. The test cages are covered on the bottom with cellophane and the top with tulle netting. Percent mortality is recorded 48 hours later. Test concentrations range from 0.05% down to that at which approximately 50% mortality occurs.
# [8] = test system: Southern House Mosquito [Culex pipiens quinquefasciatus (Say)]; experiment: Southern House Mosquito larvae in aqueous solution; details: 48 h, read-out: Insecticide Activity - Approximate LD50, MOS (Southern House Mosquito)
# Procedure: Insecticidal activity is determined using third-instar larvae of the mosquito (Culex pipiens quinquefasciatus). Ten larvae are placed in a 6-ounce, number 67 Dixie wax paper cup containing 100 ml of an aqueous solution of the test chemical. The treated larvae are stored at 70°F, and 48 hours later the mortality is recorded. Test concentrations range from 0.5 PPM down to that at which approximately 50% mortality occurs.
# [9] = test system: Black Bean Aphid [Aphis fabae (Scop.)]; experiment: Systemic Assay on Black Bean Aphid; details: 168 h, read-out: Insecticide Activity - Approximate LD50, BAS (Black Bean Aphid - systemic)
# Procedure: Test chemicals are diluted in acetone and aliquots are thoroughly mixed into 500 grams of dry, sandy loam soil. The treated soil is placed in a pint ice cream carton and a nasturtium plant (Tropaeolum sp.) approximately 5 cm tall is transplanted into each carton. The plants are then infested with approximately 25 black bean aphids of mixed ages and placed in the greenhouse. Seven days later mortality is recorded. Test concentrations range from 10 PPM down to that at which approximately 50% mortality occurs.
# [10] = spray on 1-month-old nymphs, mortality after 7 days
# [11] = systemic, chemical in soil, mortality after 7 days
Structure (SMILES),"Insecticide Activity - Approximate LD50, CL (Cabbage Looper) [1]","Insecticide Activity - Approximate LD50, GR (German Cockroach) [2, 10]","Insecticide Activity - Approximate LD50, HF (Housefly) [3]","Insecticide Activity - Approximate LD50, BA (Black Bean Aphid - direct spray) [4]","Insecticide Activity - Approximate LD50, GPA (Green Peach Aphid) [5]","Insecticide Activity - Approximate LD50, TBW (Tobacco Budworm) [6]","Insecticide Activity - Approximate LD50, LB (Lygus Bug) [7]",LC50 [8],"LC50 [9, 11]","Insecticide Activity - Approximate LD50, GR (German Cockroach) ([2]; 168 h)",LC50 ([9]; soil)
CCN(CC)C(=NC(=O)CSP(=S)(OC)OC)OC [Compound 6],> .1%,> .1%,24 μg/25 F.,.05%,> .05%,> .1%,> .05%,> 1 µg/mL,,,
C=CCN(C(=NC(=O)CSP(=S)(OC)OC)OC)c1ccccc1 [Compound 11],> .1%,> .1%,30 μg/25 F.,.005%,.03%,> .1%,> .05%,> 1 µg/mL,> 10 µg/mL,,
CCOP(=S)(OCC)SCC(=O)N=C(OC)N(CC)c1cccc(C)c1 [Compound 18],> .1%,.1%,22 μg/25 F.,.0005%,.005%,.1%,> .05%,> 1 µg/mL,5 µg/mL,,
"C=CCN(CC=C)C(=NC(=O)CSP(=S)(OCC)OCC)OC [Compound 1, N,N-Diallyl-N'-(O,O-diethylphosphorodithioylacetyl)-O-methylisourea]",,> .1%,10 μg/25 F.,.003%,> .05%,,.05%,1 µg/mL,3 µg/mL,,
CCOP(=S)(OCC)SCC(=O)N=C(OC)N(C)c1ccccc1 [Compound 8],> .1%,,30 μg/25 F.,.0008%,.03%,.1%,> .05%,> 1 µg/mL,,> .05%,> 1 µg/mL
COC(=NC(=O)CSP(=S)(OC)OC)N(C)Cc1ccccc1 [Compound 13],> .1%,> .1%,30 μg/25 F.,> .05%,,> .1%,> .05%,> 1 µg/mL,,,
CCN(C(=NC(=O)CSP(=S)(OC)OC)OC)c1ccccc1 [Compound 16],.1%,> .1%,25 μg/25 F.,.03%,,> .1%,> .05%,> 1 µg/mL,> 10 µg/mL,,
C=CCN(C(=NC(=O)CSP(=S)(OCC)OCC)OC)c1ccccc1 [Compound 10],> .1%,> .1%,10 μg/25 F.,> .05%,,> .1%,.05%,> 1 µg/mL,,,
"CCOP(=S)(OCC)SCC(=O)N=C(OC)N1CCOCC1 [Compound 4, N-morpholino-N'-(O,O-diethylphosphorodithioylacetyl)-O-methylisourea]",,> .1%,27 μg/25 F.,.0008%,> .05%,,.05%,> 1 µg/mL,5 µg/mL,,
CCN(C(=NC(=O)CSP(=S)(OC)OC)OC)c1cccc(C)c1 [Compound 19],> .1%,> .1%,62 μg/25 F.,.002%,.03%,> .1%,> .05%,> 1 µg/mL,> 10 µg/mL,,
CCOP(=S)(OCC)SCC(=O)N=C(OC)N(C)Cc1ccccc1 [Compound 12],> .1%,> .1%,24 μg/25 F.,> .05%,,> .1%,> .05%,> 1 µg/mL,,,
C=CCN(CC=C)C(=NC(=O)CSP(=S)(OC)OC)OC [Compound 2],,> .1%,8 μg/25 F.,.008%,,,> .05%,> 1 µg/mL,5 µg/mL,,
